Experimental data as given in patent US7071177B2, “P-(sulfonyl) aryl and heteroarylamines as anti-inflammatory agents” (Syntex (U.S.A.) LLC, priority 2000, dated 2006).

melting point | Structure (SMILES)
169.1 to 170 °C | Cc1ccc(CN(CCS(C)(=O)=O)c2ccc(S(N)(=O)=O)cc2)cc1 [2-2, 4-[(2-methylsulfonyl-ethyl)-(4-methyl-benzyl)-amino]-benzenesulfonamide]
85.7 to 86.6 °C | COc1ccc(CNS(=O)(=O)c2ccc(N(CCS(C)(=O)=O)Cc3ccc(C)cc3)cc2)cc1 [2-1, 4-[(2-methylsulfonyl-ethyl)-(4-methyl-benzyl)amino]-N-(4-methoxy-benzyl)-benzenesulfonamide]
152.9 to 153.2 °C | CS(=O)(=O)CCN(Cc1ccc(F)cc1F)c1ccc(S(N)(=O)=O)cc1 [2-4, 4-[(2-methylsulfonyl-ethyl)-(2,4-difluorobenzyl)-amino]-benzenesulfonamide]

More lines, now with the values behind:

Structure (SMILES) | melting point
CCOc1ccc(CN(CCS(C)(=O)=O)c2ccc(S(C)(=O)=O)c(F)c2)cc1 [1-72, (4-ethoxy-benzyl)-(3-fluoro-4-methanesulfonyl-phenyl)-(2-methanesulfonyl-ethyl)-amine] | 56 to 59 °C
CS(=O)(=O)CCN(Cc1ccccn1)c1ccc(S(C)(=O)=O)cc1 [1-45, 4-{N,N-[2-(methylsulfonyl)ethyl](pyridin-2-ylmethyl)amino}phenyl methyl sulfone] | 139.5 to 140.5 °C
